Results published in patent publication US8211883B2, “Topical delivery of phthalocyanines” (priority 2004, dated 2012).
Marks after values point to notes of the source that are not given here.

Legend:
L5178Y cells = assay: Induction of apoptosis (DNA ladder) in L5178Y cells after PDT; type: cell-based, Mouse; details: for Fluence, Minimum Demonstrated Condition to Induce Apoptosis / C × F Ld90, Minimum Demonstrated Condition to Induce Apoptosis: 0.5 μM; for C × F Ld90, Minimum Demonstrated Condition to Induce Apoptosis: product of concentration and fluence; for induction of apoptosis: 1 μM at a fluence of 30 kJ/m^2
Description: The cells were used while in exponential growth. Stock solutions of either 0.5 or 1 mM of PcIV, PcXII, PcX, PcXVIII were prepared in dimethylformamide unless otherwise indicated and added to the 10 mL medium at a rate of 1 μL per mL. After allowing 18 hours for uptake of the phthalocyanine into the cells, the flasks containing the cultures were placed on a glass exposure tray above a 500-W tungsten-halogen lamp. The exposure tray was fitted with a 600-nm high-pass filter. Flasks were exposed to various fluences of red light (up to 30 kJ/m^2) at a fluence rate of approximately 74 W/m^2). After irradiation, the cells were collected by centrifugation.
The aliquots were plated in sufficient numbers to produce 50-200 colonies. The dishes were kept in an incubator at 37° C. in an atmosphere of 5% CO2 and 95% air for 10-14 days to allow viable cells to form colonies. Colonies were counted by eye. […] The plating efficiencies of the treated cells are normalized to the plating efficiencies of control cells in each experiment.
Cells were treated with various concentrations of the compounds listed in the table and various light fluences. DNA gels were prepared and examined for the characteristic “ladder” pattern of DNA fragments. For each Pc, the minimum total PDT dose tested (calculated as the product of the minimum phthalocyanine concentration and the minimum fluence) which produced visible DNA fragments is recorded. […] PcXVIII was also added at 0.5 and 1.0 μM.

[1] = tested on: Chinese hamster V79-379 lung fibroblasts; assay: Uptake of phthalocyanines into V79 cells; details: for n Moles/10^6 Cells/μM (composite uptake value): V79 cells, average of all data, asterisk: listed value is for 1 μM, average would be higher
Description: Chinese hamster V79-379 lung fibroblasts were grown in monolayer culture in McCoy's 5A medium (Gibco Laboratories, Grand Island, N.Y.) augmented with 10% calf serum and buffered with 20 mM HEPES (pH 7.4).
Total uptake was determined by scraping the phthalocyanine-treated monolayer, collecting the cells on a glass-fiber filter, and extracting the phthalocyanine in ethanol, as previously described by Ramakrishnan, et al., 1989. (Ramakrishnan, N., M. E. Clay, M. F. Horng, A. R. Antunez, & H. H. Evans, “DNA Lesions and DNA Degradation in Mouse Lymphoma L5178Y Cells After Photodynamic Treatment Sensitized by Chloroaluminum Phthalocyanine”, Photochem. Photobiol, in press, 1989). The amount of drug was determined by absorption at 674 nm and expressed relative to the number of cells, as measured in a Coulter cell counter on an aliquot of the cell population. Controls included cells not treated with drug, medium alone, and drug-containing medium without cells.
The cells were treated with 1 μM AlPcCl (from Eastman Kodak, Rochester, N.Y.) or with phthalocyanine compositions I-VI (0.5-1.0 μM final concentration in the medium) for 18 hours by adding the appropriate volume of a 1.0 mM stock solution in dimethylformamide (DMF) to the culture medium. The growth medium was replaced with 4 mL Hank's balanced salt solution (HBSS), and the cells were irradiated. The light source was a 500 W tungsten-halogen lamp located approximately 29 inches below the surface of a glass exposure tray. The visible light administered to the cells was filtered to allow passage of only that portion of the visible spectrum above 600 nm (Lee Primary red filter No. 106, Vincent Lighting, Cleveland, Ohio). The fluence rate was approximately 0.074 kJ/m^2/s at the level of the cell monolayer.
V79 cells Chinese hamster lung fibroblasts were cultured using the cell culture methods described above. The phthalocyanines listed in table 2 were added to the cultures typically at concentrations of 1 μM, 2 μM, and/or 4 μM and incubated for 18 hours, after which aliquots of the cells were counted and other aliquots were collected on a glass fiber filter. When the filters were dry, the phthalocyanines were extracted into ethanol and the absorption determined at the peak wavelength, usually 668 nm. Values were converted to nmoles taken up by 10^6 cells, using an extinction coefficient of 2.93×10^5.

[2] = tested on: Chinese hamster V79-379 lung fibroblasts; assay: Clonogenic cell survival of V79 cells after photodynamic treatment; type: cell-based; details: for LD 90 (light dosage that kills 90% of cells): 18 hours, 675 nm red light, VII# preplated data only, XXI* not totally soluble at 0.5 mM
Description: Cells were irradiated at a density of approximately 2×10^6 per 25 cm^2 flask. Immediately after irradiation, the cell monolayer was treated with trypsin, and appropriate aliquots were plated in triplicate to give 100 to 200 colonies in each 10-cm Petri dish. Cell survival was determined by the ability of the cells to form colonies containing at least 50 cells. The response of cells treated with 1 μM AlPcCl and light was compared in each experiment.
Photocytotoxicity of the phthalocyanines compounds I to VI was also assessed by clonogenic assay (Table 1, FIG. 1). In all experiments, 1 μM AlPcCl was included for comparison purposes. From the survival curves (FIG. 1), the fluence reducing the cell survival to 10% (F10) was obtained. The ratio of the F10 for AlPcCl and the F10 for the test compound is recorded in Table 1. Compounds I and II appear to be nearly as efficient photosensitizers as AlPcCl, while compound IV (assayed at half the concentration) was almost twice as efficient as the standard AlPcCl. […] However, in spite of the low efficiency of compound V in inhibiting cell growth, survival measurements were made for this compound, because it was taken up into V79 cells somewhat more efficiently than compounds III and VI.
In order to take differences in cellular uptake into consideration in the assessment of the relative efficiency of these phthalocyanines as photosensitizers of V79 cells, the survival data were replotted against the product of intracellular phthalocyanine concentration and light fluence (FIG. 2). From these curves, the product of intracellular concentration and light fluence reducing survival to 10% (CF10) was obtained, and comparisons of the values for AlPcCl and the test compounds are recorded in Table 1. By this and the other criteria, compound IV appears to be the most efficient photosensitizer. However, when consideration is given to the lesser cell uptake of compound V, it appears to be about as strong a photosensitizer as compound IV.
Using the cell culture methods described above, V79 cells Chinese hamster lung fibroblasts were treated with either 0.5 or 1.0 μM of the phthalocyanines listed in Table 3. About 18 hours thereafter, the cells were irradiated with increasing doses of 675 nm broad band red light from a 500 W tungsten-halogen lamp fitted with a 600 nm high pass filter, to determine the light dosage that would kill 90% of the phthalocyanine treated cells. Where 90% of the cells were not killed, the maximum percent of cells killed were determined, (expressed as % survival) and the related light dosage recorded.

C[Si](C)(CCCCN)O[Si]1(O[Si](C)(C)CCCCN)n2c3c4ccccc4c2N=C2N=C(N=c4c5ccccc5c(n41)=NC1=NC(=N3)c3ccccc31)c1ccccc12 [Compound VII, SiPc[OSi(CH3)2(CH2)4NH2]2]
Fluence, Minimum Demonstrated Condition to Induce Apoptosis (L5178Y cells): 3.0 kJ/m^2
C × F Ld90, Minimum Demonstrated Condition to Induce Apoptosis (L5178Y cells): 1.5 kJ/m^2
Uptake Into V79 Cells, 1 μM ([1]; 18 hours): 0.2 ± 0.03 n Moles/10^6 cells
Uptake Into V79 Cells, 4 μM ([1]; 18 hours): 1.1 ± 0.5 n Moles/10^6 cells
n Moles/10^6 Cells/μM (composite uptake value) [1]: 0.2 n Moles/10^6 Cells/μM
LD 90 (light dosage that kills 90% of cells) ([2]; 0.5 μM): 4 kj/m^2

C[Si](C)(CCCCNC(=S)N[C@@H]1O[C@H](CO)[C@@H](O)[C@H](O)[C@H]1O)O[Si]1(O[Si](C)(C)CCCCNC(=S)N[C@@H]2O[C@H](CO)[C@@H](O)[C@H](O)[C@H]2O)n2c3c4ccccc4c2N=C2N=C(N=c4c5ccccc5c(n41)=NC1=NC(=N3)c3ccccc31)c1ccccc12 [Compound XI, SiPc[OSi(CH3)2(CH2)4NHCSNHC6H111O5]2]
induction of apoptosis (L5178Y cells): did not induce apoptosis
Uptake Into V79 Cells, 1 μM ([1]; 18 hours): 0.1 n Moles/10^6 cells
Uptake Into V79 Cells, 4 μM ([1]; 18 hours): 0.3 ± 0.1 n Moles/10^6 cells
n Moles/10^6 Cells/μM (composite uptake value) [1]: 0.1 n Moles/10^6 Cells/μM
Maximum Effect (% survival at kj/m^2) ([2]; 1 μM, at 20 kj/m^2): 100% at 20

CC(=O)OCCC[Si](C)(C)O[Si]1(O)n2c3c4ccccc4c2N=C2N=C(N=c4c5ccccc5c(n41)=NC1=NC(=N3)c3ccccc31)c1ccccc12 (centres unmarked) [Compound XIII, HOSiPcOSi(CH3)2(CH2)3OCOCH3]
Uptake Into V79 Cells, 4 μM ([1]; 18 hours): 1.7 ± 0.3 n Moles/10^6 cells
n Moles/10^6 Cells/μM (composite uptake value) [1]: 0.4 n Moles/10^6 Cells/μM
Maximum Effect (% survival at kj/m^2) ([2]; 1 μM, at 15 kj/m^2): 88% at 15

CCCCCCCCCCCC[N+](C)(C)CCC[Si](C)(C)O[Si]1(O[Si](C)(C)CCC[N+](C)(C)CCCCCCCCCCCC)n2c3c4ccccc4c2N=C2N=C(N=c4c5ccccc5c(n41)=NC1=NC(=N3)c3ccccc31)c1ccccc12 [Compound XIV, SiPc[OSi(CH3)2(CH2)3N^+(CH3)2(CH2)11CH3]22I^−]
induction of apoptosis (L5178Y cells): did not induce apoptosis
Uptake Into V79 Cells, 1 μM ([1]; 18 hours): 0.03 ± 0.01 n Moles/10^6 cells
Uptake Into V79 Cells, 4 μM ([1]; 18 hours): 0.05 ± 0.01 n Moles/10^6 cells
n Moles/10^6 Cells/μM (composite uptake value) [1]: <0.05 n Moles/10^6 Cells/μM
Maximum Effect (% survival at kj/m^2) ([2]; 1 μM, at 10 kj/m^2): 93% at 10

C[Si](C)(CCCN1CCOCC1)O[Si]1(O)n2c3c4ccccc4c2N=C2N=C(N=c4c5ccccc5c(n41)=NC1=NC(=N3)c3ccccc31)c1ccccc12 (centres unmarked) [Compound XIX, HOSiPcOSi(CH3)2(CH2)3NC4H8O]
Uptake Into V79 Cells, 1 μM ([1]; 18 hours): 0.3 ± 0.1 n Moles/10^6 cells
Uptake Into V79 Cells, 4 μM ([1]; 18 hours): 2.4 ± 0.5 n Moles/10^6 cells
Maximum Effect (% survival at kj/m^2) ([2]; 1 μM, at 10 kj/m^2): 81% at 10

CCN(CC)c1ccc2c(c1)Oc1cc(N(CC)CC)ccc1C21c2ccccc2C(=O)N1CCCC[Si](C)(C)O[Si]1(O[Si](C)(C)C(C)(C)C)n2c3c4ccccc4c2N=C2N=C(N=c4c5ccccc5c(n41)=NC1=NC(=N3)c3ccccc31)c1ccccc12 (centres unmarked) [Compound XV, (CH3)3C(CH3)2SiOSiPcOSi(CH3)2(CH2)4NCOC27H30N2O]
induction of apoptosis (L5178Y cells): did not induce apoptosis
Uptake Into V79 Cells, 1 μM ([1]; 18 hours): 0.01 ± 0.01 n Moles/10^6 cells
Uptake Into V79 Cells, 4 μM ([1]; 18 hours): 0.14 ± 0.12 n Moles/10^6 cells
n Moles/10^6 Cells/μM (composite uptake value) [1]: <0.05 n Moles/10^6 Cells/μM
Maximum Effect (% survival at kj/m^2) ([2]; 4 μM, at 20 kj/m^2): 81% at 20

C[Si](C)(CCCO)O[Si]1(O)n2c3c4ccccc4c2N=C2N=C(N=c4c5ccccc5c(n41)=NC1=NC(=N3)c3ccccc31)c1ccccc12 (centres unmarked) [Compound XVII, HOSiPCOSi(CH3)2(CH2)3OH]
Uptake Into V79 Cells, 4 μM ([1]; 18 hours): 1.7 ± 0.2 n Moles/10^6 cells
n Moles/10^6 Cells/μM (composite uptake value) [1]: 0.4 n Moles/10^6 Cells/μM
Maximum Effect (% survival at kj/m^2) ([2]; 1 μM, at 10 kj/m^2): 19% at 10

CCCCCCCCCCCC[N+](C)(C)CCC[Si](C)(C)[O][Al]1[n]2c3c4ccccc4c2N=C2N=C(N=c4c5ccccc5c([n]41)=NC1=NC(=N3)c3ccccc31)c1ccccc12.[I-] [Compound XXI, AlPcOSi(CH3)2(CH2)3N^+(CH3)2)(CH2)11CH3I^−]
Uptake Into V79 Cells, 1 μM ([1]; 18 hours): 1.2 ± 0.2 n Moles/10^6 cells
Uptake Into V79 Cells, 4 μM ([1]; 18 hours): 5.8 ± 0.4 n Moles/10^6 cells
n Moles/10^6 Cells/μM (composite uptake value) [1]: 1.3 n Moles/10^6 Cells/μM
LD 90 (light dosage that kills 90% of cells) ([2]; 0.5 μM): 15* kj/m^2

CN(C)CCCCCCCC[Si](C)(C)O[Si]1(O)n2c3c4ccccc4c2N=C2N=C(N=c4c5ccccc5c(n41)=NC1=NC(=N3)c3ccccc31)c1ccccc12 (centres unmarked) [Compound XXII, HOSiPcOSi(CH3)2(CH2)8N(CH3)2]
Fluence, Minimum Demonstrated Condition to Induce Apoptosis (L5178Y cells): 10.0 kJ/m^2
C × F Ld90, Minimum Demonstrated Condition to Induce Apoptosis (L5178Y cells): 5.0 kJ/m^2
LD 90 (light dosage that kills 90% of cells) ([2]; 0.5 μM): 10 kj/m^2

C[Si](C)(CCCN1CCSCC1)O[Si]1(O)n2c3c4ccccc4c2N=C2N=C(N=c4c5ccccc5c(n41)=NC1=NC(=N3)c3ccccc31)c1ccccc12 (centres unmarked) [Compound XXIV, HOSiPCOSi(CH3)2(CH2)3NC4H8S]
Uptake Into V79 Cells, 1 μM ([1]; 18 hours): 0.003 ± 0.001 n Moles/10^6 cells
Uptake Into V79 Cells, 4 μM ([1]; 18 hours): 1.3 ± 0.1 n Moles/10^6 cells
n Moles/10^6 Cells/μM (composite uptake value) [1]: <0.05* n Moles/10^6 Cells/μM
Maximum Effect (% survival at kj/m^2) ([2]; 0.5 μM, at 10 kj/m^2): 100% at 10

CCCCN(CCCC)CCC[Si](C)(C)O[Si]1(O)n2c3c4ccccc4c2N=C2N=C(N=c4c5ccccc5c(n41)=NC1=NC(=N3)c3ccccc31)c1ccccc12 (centres unmarked) [Compound XXV, HOSiPcOSi(CH3)2(CH2)3N(CH2)3CH3)2]
Uptake Into V79 Cells, 1 μM ([1]; 18 hours): 0.02 ± 0.02 n Moles/10^6 cells
Uptake Into V79 Cells, 4 μM ([1]; 18 hours): 1.5 ± 0.3 n Moles/10^6 cells
n Moles/10^6 Cells/μM (composite uptake value) [1]: <0.05* n Moles/10^6 Cells/μM
Maximum Effect (% survival at kj/m^2) ([2]; 0.5 μM, at 8 kj/m^2): 87% at 8

C[Si](C)(CCCN=C=S)O[Si]1(O)n2c3c4ccccc4c2N=C2N=C(N=c4c5ccccc5c(n41)=NC1=NC(=N3)c3ccccc31)c1ccccc12 (centres unmarked) [Compound XXVI, HOSiPcOSi(CH3)2(CH2)3NCS]
Maximum Effect (% survival at kj/m^2) ([2]; 1 μM, at 30 kj/m^2): 100% at 30

CN(C)CCCN(CCCN(C)C)CCC[Si](C)(C)O[Si]1(O)n2c3c4ccccc4c2N=C2N=C(N=c4c5ccccc5c(n41)=NC1=NC(=N3)c3ccccc31)c1ccccc12 (centres unmarked) [Compound XXVII, HOSiPcOSi(CH3)2(CH2)3N[(CH2)3N(CH3)2]2]
Uptake Into V79 Cells, 1 μM ([1]; 18 hours): 1.8 n Moles/10^6 cells
Uptake Into V79 Cells, 4 μM ([1]; 18 hours): 5.0 ± 0.01 n Moles/10^6 cells
n Moles/10^6 Cells/μM (composite uptake value) [1]: 1.5 n Moles/10^6 Cells/μM
LD 90 (light dosage that kills 90% of cells) ([2]; 0.5 μM): 6.8 kj/m^2

CCCCN1CCN(CCC[Si](C)(C)O[Si]2(O)n3c4c5ccccc5c3N=C3N=C(N=c5c6ccccc6c(n52)=NC2=NC(=N4)c4ccccc42)c2ccccc23)CC1 (centres unmarked) [Compound XXXI, HOSiPCOSi(CH3)2(CH2)3NC4H8N(CH2)3CH3]
Uptake Into V79 Cells, 2 μM ([1]; 2 μM, 18 hours): 0.61 ± 0.1 n Moles/10^6 cells
n Moles/10^6 Cells/μM (composite uptake value) [1]: 0.3 n Moles/10^6 Cells/μM
Maximum Effect (% survival at kj/m^2) ([2]; 0.5 μM, at 10 kj/m^2): 30% at 10
